# Experimental data: patent US10342819B2, “Oligonucleotide having non-natural nucleotide at 5′-terminal thereof” (Kyowa Hakko Kirin Co., Ltd., priority 2014, dated 2019)
# [5FU] = 5-fluoro-2'-deoxyuridine monophosphate
# Test system: luciferase
# Test: RNAi activity of luciferase-targeting siRNA having 5-F-dU (Test Example 3, same manner as Test Example 2)
# Type: cell-based, human
# Settings: for IC50: Hela cells, 24 hours, measured in the same manner as Test Example 2, read-out: KD (Luc assay) IC50; for knockdown activity against the expression of luciferase compared with the siRNAs having a corresponding natural nucleotide at the 5′ end of the antisense strand: conclusion from Test Example 3
# Protocol: The RNAi activity of the luciferase-targeting siRNA having 8-Br-dA at the 5′ end of the antisense strand obtained in Example 1 was evaluated by measuring the inhibitory effect on the expression of Luciferase GL4 mRNA (GenBank Accession No. EU921840) as described below.
# In a culture dish (Multidish 24 wells, Cat. No. 142475, manufactured by Nunc, Inc.), human cervical cancer-derived cell line Bela cells (CCL-2, purchased from ATCC) were suspended in RPMI medium (Invitrogen Life Technologies, 11875093) containing 10% fetal bovine serum, and 500 μL of the resulting cell suspension was inoculated into each well to give 50000 cells/well. Thereto, 100 μL of a solution of an siRNA-Lipofectamine RNAiMAX (Invitrogen Life Technologies, 13778-075) complex mixed in OPTI-MEM (Invitrogen Life Technologies, 31985-070) was added, whereby the siRNA was introduced into the Hela cells. The final concentration of the siRNA was set to the following seven levels: 10000 pmol/L, 2000 pmol/L, 400 pmol/L, 80 pmol/L, 16 pmol/L, 3.2 pmol/L, and 0.64 pmol/L. Further, as a negative control group, cells to which only Lipofectamine RNAiMAX was added were inoculated.
# The cells after introduction of the siRNA were cultured under the conditions of 37° C. and 5% CO2 for 24 hours. In order to collect RNA, an RNA extraction kit (RNeasy 74106) of Qiagen, Inc. was used. The cells after culture were washed once with phosphate buffer, and then lysed with RLT buffer (attached to Rneasy) attached to the RNeasy kit and collected. Then, the total RNA was collected according to the instruction attached to the kit. […] By using this cDNA as a template for the PCR reaction, a GL4 (GenBank Accession No. EU921840) gene and, as a control, D-glyceraldehyde-3-phosphate dehydrogenase (GAPDH, GenBank Accession No. NM_001256799) were subjected to the PCR reaction by the Taqman probe method using ABI 7900HT Fast (Applied Biosystems, Inc. (ABI)), and each level of amplified mRNAs was measured. Then, a semi-quantitative level of mRNA of GL4 was calculated using the level of the amplified mRNA of GAPDH as an internal control. […] Further, in the negative control group, the level of mRNA of GL4 and the level of the amplified mRNA of GAPDH were measured in the same manner, respectively, and a semi-quantitative level of mRNA of GL4 was calculated using the level of amplified mRNA of GAPDH as an internal control. […]
# An IC50 value was calculated by the Logit method. […]
# The RNAi activity of each of the luciferase-targeting siRNAs obtained in Example 4 (Table 27, having 5-F-dU at the position of X) was measured and evaluated in the same manner as in Test Example 2. […]
Substance,IC50 [nM],knockdown activity against the expression of luciferase compared with the siRNAs having a corresponding natural nucleotide at the 5′ end of the antisense strand
"1556-5-F-dU: luciferase-targeting siRNA, antisense XUCCUUUAGGCACCUCGUCCA, X = 5-fluoro-2′-deoxyuridine monophosphate (sense GACGAGGUGCCUAAAGGAAUG; antisense UUCCUUUAGGCACCUCGUCCA; sense: chemistry not given here; antisense: DNA at 1, [5FU] at 1, other sugars and backbone not given here)",0.132,higher knockdown activity
"454-5-F-dU: luciferase-targeting siRNA, antisense XUAGUCGGUCUUGCUAUCCAU, X = 5-fluoro-2′-deoxyuridine monophosphate (sense GGAUAGCAAGACCGACUAACA; antisense UUAGUCGGUCUUGCUAUCCAU; sense: chemistry not given here; antisense: DNA at 1, [5FU] at 1, other sugars and backbone not given here)",0.049,higher knockdown activity
